Structures can show the parent of a compound that is named as a salt.
What was measured:
[1] = patients, 1-yr trial; cited from earlier work
[2] = molecular target: T1, human sphingosine kinase type 1 (hSPHK1) (Homo sapiens, UniProt Q9NYA1); test: Sphingosine kinase assay, recombinant human SPHK1 ([32P]S1P product, scintillation counting); format: biochemical; details: read-out: activity hSPHK1 (range estimate of KI)
T1 construct: made in house; host or cells: Sf9 insect cells (baculovirus)
Procedure, shortened: (§1)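 SPHK1 from cleared lysates of baculovirus-infected Sf9 cells, unpurified; SPHK2 partially purified from Sf9 lysates. Standard sphingosine kinase protocol; [32P]S1P product captured on cation exchange paper and counted by scintillation.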

[3] = molecular target: T2, human sphingosine kinase type 2 (hSPHK2) (Homo sapiens, UniProt Q9NRA0); test: Sphingosine kinase assay, recombinant human SPHK2 ([32P]S1P product, scintillation counting); format: biochemical; details: read-out: activity hSPHK2 (range estimate of KI)
T2 construct: purchased; host or cells: Sf9 insect cells (baculovirus)
T2 sequence (Q9NRA0 1-654): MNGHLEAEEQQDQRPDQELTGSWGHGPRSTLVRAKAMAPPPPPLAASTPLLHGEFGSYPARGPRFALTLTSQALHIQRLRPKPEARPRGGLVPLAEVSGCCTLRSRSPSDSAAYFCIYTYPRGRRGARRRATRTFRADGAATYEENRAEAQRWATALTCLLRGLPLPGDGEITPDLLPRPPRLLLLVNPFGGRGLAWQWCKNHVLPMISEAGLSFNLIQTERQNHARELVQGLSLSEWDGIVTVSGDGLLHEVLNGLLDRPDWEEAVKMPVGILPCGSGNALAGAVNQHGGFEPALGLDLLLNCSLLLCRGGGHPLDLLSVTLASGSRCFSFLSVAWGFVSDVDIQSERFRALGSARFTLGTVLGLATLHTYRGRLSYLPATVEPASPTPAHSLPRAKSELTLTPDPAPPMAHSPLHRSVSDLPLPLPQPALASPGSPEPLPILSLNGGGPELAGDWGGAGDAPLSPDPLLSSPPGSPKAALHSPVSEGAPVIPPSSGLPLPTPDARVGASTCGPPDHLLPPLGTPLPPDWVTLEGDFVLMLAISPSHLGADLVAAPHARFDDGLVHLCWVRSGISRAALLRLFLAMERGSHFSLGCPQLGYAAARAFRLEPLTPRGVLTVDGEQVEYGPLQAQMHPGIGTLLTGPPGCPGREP
Procedure, shortened: as §1

T1 sequence (Q9NYA1 whole entry): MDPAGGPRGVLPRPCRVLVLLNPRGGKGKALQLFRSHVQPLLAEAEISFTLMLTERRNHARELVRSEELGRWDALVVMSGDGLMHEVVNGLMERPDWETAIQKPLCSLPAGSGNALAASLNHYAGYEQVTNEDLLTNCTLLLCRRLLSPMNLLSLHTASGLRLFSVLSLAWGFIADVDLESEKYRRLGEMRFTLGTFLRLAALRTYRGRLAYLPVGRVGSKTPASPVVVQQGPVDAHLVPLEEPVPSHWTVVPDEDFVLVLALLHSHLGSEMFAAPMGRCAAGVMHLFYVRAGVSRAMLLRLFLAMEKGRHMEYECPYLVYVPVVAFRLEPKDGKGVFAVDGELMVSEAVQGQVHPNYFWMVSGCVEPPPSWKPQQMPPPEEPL

Row | Compound | modest hypertension [1] | Ki [2] [nM] | Ki [3] [nM]
1 | CCCCCCCCc1ccc(CCC(N)(CO)CO)cc1 [fingolimod, 2-amino-2-[2-(4-octylphenyl)ethyl] propane 1,3-diol] | 2-3 mmHg |  | 
2 | CCCCc1ccc(CCc2ccc(-c3noc([C@@H]4CCCN4C(=N)N)n3)cc2C(F)(F)F)cc1 [Compound 36A, (S)-2-(3-(4-(4-butylphenethyl)-3-(trifluoromethyl)phenyl)-1,2,4-oxadiazol-5-yl)pyrrolidine-1-carboximidamide hydrochloride] |  | > 10000 | < 1000
3 | CCCc1ccc(CCc2ccc(-c3noc([C@@H]4[C@@H](O)CCN4C(=N)N)n3)cc2C(F)(F)F)cc1 [Compound 34A, (2S,3S)-3-hydroxy-2-(3-(4-(4-propylphenethyl)-3-(trifluoromethyl)phenyl)-1,2,4-oxadiazol-5-yl)pyrrolidine-1-carboximidamide hydrochloride] |  | 1000 to 10000 | < 1000
